The target in series [1] is T1, MET (Homo sapiens, UniProt P08581). Briefly: Test A: HTRF MET assay in 96-well format. It counts as biochemical. More on the design: The His-Tev-MET (956-1390) recombinant DNA in pFastBac (Invitrogen) is transfected into insect cells; His-Tev (histidine tag with TEV cleavage site) (N, cleaved yes); made in house; host or cells: SF21 insect cells (baculovirus, pFastBac). The note with it: MET 5 nM, 10 μM ATP, poly-(GAT). On the procedure:
The His-Tev-MET (956-1390) recombinant DNA in pFastBac (Invitrogen) is transfected into insect cells and, after several viral amplification steps, the final baculovirus stock is tested for the expression of the protein of interest.
After infection for 72 h at 27° C. with the recombinant virus, SF21 cell cultures are harvested by centrifugation and the cell pellets are stored at −80° C.
The cell pellets are resuspended in the lysis buffer (buffer A [50 mM HEPES, pH 7.5, 250 mM NaCl, 10% glycerol, 1 mM TECP]; +cocktail of protease inhibitors, Roche Diagnostics, without EDTA, ref 1873580), stirred at 4° C. until the mixture is homogeneous, and then lysed mechanically using a “Dounce” type apparatus.
After centrifugation, the lysis supernatant is incubated for 2 h at 4° C. with nickel chelate resin (His-Trap 6 Fast Flow™, GE HealthCare). After washing with 20 volumes of buffer A, the suspension is packed into a column, and the proteins are eluted with a gradient of buffer B (buffer A+290 mM imidazole).
The fractions containing the protein of interest, for the purpose of electrophoretic analysis (SDS PAGE), are combined, concentrated by ultrafiltration (10 kDa cut-off) and injected onto an exclusion chromatography column (Superdex™ 200, GE HealthCare) equilibrated in buffer A.
After enzymatic cleavage of the histidine tag, the protein is reinjected onto a new IMAC nickel chelate chromatography column (His-Trap 6 Fast Flow™, GE HealthCare) equilibrated in buffer A. The fractions eluted with a gradient of buffer B and containing the protein of interest after electrophoresis (SDS PAGE) are finally combined and stored at −80° C.
For the production of autophosphorylated protein, the previous fractions are incubated for 1 h at ambient temperature after the addition of 2 mM ATP, 2 mM MgCl2 and 4 mM Na3VO4. After the reaction has been stopped with 5 mM of EDTA, the reaction mixture is injected onto a HiPrep desalifying column (GE HealthCare) pre-equilibrated in buffer A+4 mM Na3VO4, and the fractions containing the protein of interest (SDS PAGE analysis) are combined and stored at −80° C. The degree of phosphorylation is verified by mass spectrometry (LC-MS) and by peptide mapping.
MET at a final concentration of 5 nM is incubated in a final volume of 50 μl of enzymatic reaction in the presence of the test molecule (for a final concentration range of from 0.17 nM to 10 μM, 3% DMSO final concentration) in 10 mM MOPS buffer, pH 7.4, 1 mM DTT, 0.01% Tween 20. The reaction is initiated with the substrate solution to obtain final concentrations of 1 μg/ml poly-(GAT), 10 μM ATP and 5 mM MgCl2. After incubation for 10 min at ambient temperature, the reaction is stopped with a 30 μl mix so as to obtain a final solution of 50 mM Hepes, pH 7.5, 500 mM potassium fluoride, 0.1% BSA and 133 mM EDTA in the presence of 80 ng of streptavidin 61SAXLB Cis-Bio Int. and 18 ng of anti-phosphotyrosine Mab PT66-Europium Cryptate per well. After incubation for 2 hours at ambient temperature, the reading is taken at 2 wavelengths, 620 nm and 665 nm, on a reader for the TRACE/HTRF technique, and the % inhibition is calculated from the 665/620 ratios.
Target sequence in this assay (P08581 956-1390): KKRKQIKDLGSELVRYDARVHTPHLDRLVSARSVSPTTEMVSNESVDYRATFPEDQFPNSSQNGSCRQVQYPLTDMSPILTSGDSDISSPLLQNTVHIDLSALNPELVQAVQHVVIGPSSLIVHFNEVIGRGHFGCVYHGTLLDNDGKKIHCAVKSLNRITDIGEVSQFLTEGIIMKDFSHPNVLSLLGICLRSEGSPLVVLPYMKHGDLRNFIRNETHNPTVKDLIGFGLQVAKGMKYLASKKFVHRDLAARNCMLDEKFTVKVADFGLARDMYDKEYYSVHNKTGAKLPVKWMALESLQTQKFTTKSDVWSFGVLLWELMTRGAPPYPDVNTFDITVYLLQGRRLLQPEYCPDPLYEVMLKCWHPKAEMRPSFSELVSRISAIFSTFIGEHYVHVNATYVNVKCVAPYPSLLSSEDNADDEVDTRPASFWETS
On the technique in general: Time-resolved FRET reads energy transfer from a long-lived donor to a nearby acceptor.

The target of series [2] is T1, MET. Briefly: Test B: inhibition of the autophosphorylation of MET, ELISA technique (pppY1230,1234,1235) in MKN45 cells. The series is classed as cell-based. Set-up: endogenous in cells; host or cells: MKN45 cells. The note with it: 1 h treatment, phosphoMET ELISA. On the procedure: B) Test B: Inhibition of the autophosphorylation of MET; ELISA technique (pppY1230,1234,1235) a) Cell lysates: MKN45 cells are seeded into 96-well plates (cell coat BD polylysine) at 20 000 cells/well in 200 μl in RPMI medium+10% FCS+1% L-glutamine. They are left to adhere for 24 hours in an incubator.
The cells are treated the day after seeding with the products at 6 concentrations, in duplicate, for 1 h. At least 3 control wells are treated with the same final amount of DMSO.
Product dilution: Stock at 10 mM in pure DMSO—range from 10 mM to 30 μM with an increment of 3 in pure DMSO—intermediate dilutions to 1/50 in culture medium and then removal of 10 μl added directly to the cells (200 μl): final range of 10 000 to 30 nM.
At the end of the incubation, the supernatant is carefully removed and rinsing is performed with 200 μl of PBS. Next, 100 μl of lysis buffer are placed directly in the wells on ice and incubated at 4° C. for 30 minutes. Lysis buffer: 10 mM Tris HCl, pH 7.4, 100 mM NaCl, 1 mM EDTA, 1 mM EGTA, 1% Triton X-100, 10% glycerol, 0.1% SDS, 0.5% deoxycholate, 20 mM NaF, 2 mM Na3VO4, 1 mM PMSF and cocktail of antiproteases.
The 100 μl of lysates are transferred into a V-bottomed polypropylene plate and the ELISA is performed immediately, or the plate is frozen at −80° C.
70 μl of kit dilution buffer+30 μL of cell lysate, or 30 μl of lysis buffer for the blanks, are added to each well of the kit plate. Incubation is carried out for 2 h with gentle agitation at ambient temperature.
The wells are rinsed 4 times with 400 μl of kit washing buffer. Incubation is carried out with 100 μl of anti-phospho MET antibody for 1 hour at ambient temperature.
The wells are rinsed 4 times with 400 μl of kit washing buffer. Incubation is carried out with 100 μl of anti-rabbit HRP antibody for 30 minutes at ambient temperature (except for the wells of chromogen alone).
The wells are rinsed 4 times with 400 μl of kit washing buffer. 100 μL of chromogen are introduced and incubation is carried out for 30 minutes in the dark at ambient temperature.
The reaction is stopped with 100 μl of stop solution. The plate is read without delay at […], 0.1 second on a Wallac Victor plate reader.
Target sequence in this assay (P08581 25-1390): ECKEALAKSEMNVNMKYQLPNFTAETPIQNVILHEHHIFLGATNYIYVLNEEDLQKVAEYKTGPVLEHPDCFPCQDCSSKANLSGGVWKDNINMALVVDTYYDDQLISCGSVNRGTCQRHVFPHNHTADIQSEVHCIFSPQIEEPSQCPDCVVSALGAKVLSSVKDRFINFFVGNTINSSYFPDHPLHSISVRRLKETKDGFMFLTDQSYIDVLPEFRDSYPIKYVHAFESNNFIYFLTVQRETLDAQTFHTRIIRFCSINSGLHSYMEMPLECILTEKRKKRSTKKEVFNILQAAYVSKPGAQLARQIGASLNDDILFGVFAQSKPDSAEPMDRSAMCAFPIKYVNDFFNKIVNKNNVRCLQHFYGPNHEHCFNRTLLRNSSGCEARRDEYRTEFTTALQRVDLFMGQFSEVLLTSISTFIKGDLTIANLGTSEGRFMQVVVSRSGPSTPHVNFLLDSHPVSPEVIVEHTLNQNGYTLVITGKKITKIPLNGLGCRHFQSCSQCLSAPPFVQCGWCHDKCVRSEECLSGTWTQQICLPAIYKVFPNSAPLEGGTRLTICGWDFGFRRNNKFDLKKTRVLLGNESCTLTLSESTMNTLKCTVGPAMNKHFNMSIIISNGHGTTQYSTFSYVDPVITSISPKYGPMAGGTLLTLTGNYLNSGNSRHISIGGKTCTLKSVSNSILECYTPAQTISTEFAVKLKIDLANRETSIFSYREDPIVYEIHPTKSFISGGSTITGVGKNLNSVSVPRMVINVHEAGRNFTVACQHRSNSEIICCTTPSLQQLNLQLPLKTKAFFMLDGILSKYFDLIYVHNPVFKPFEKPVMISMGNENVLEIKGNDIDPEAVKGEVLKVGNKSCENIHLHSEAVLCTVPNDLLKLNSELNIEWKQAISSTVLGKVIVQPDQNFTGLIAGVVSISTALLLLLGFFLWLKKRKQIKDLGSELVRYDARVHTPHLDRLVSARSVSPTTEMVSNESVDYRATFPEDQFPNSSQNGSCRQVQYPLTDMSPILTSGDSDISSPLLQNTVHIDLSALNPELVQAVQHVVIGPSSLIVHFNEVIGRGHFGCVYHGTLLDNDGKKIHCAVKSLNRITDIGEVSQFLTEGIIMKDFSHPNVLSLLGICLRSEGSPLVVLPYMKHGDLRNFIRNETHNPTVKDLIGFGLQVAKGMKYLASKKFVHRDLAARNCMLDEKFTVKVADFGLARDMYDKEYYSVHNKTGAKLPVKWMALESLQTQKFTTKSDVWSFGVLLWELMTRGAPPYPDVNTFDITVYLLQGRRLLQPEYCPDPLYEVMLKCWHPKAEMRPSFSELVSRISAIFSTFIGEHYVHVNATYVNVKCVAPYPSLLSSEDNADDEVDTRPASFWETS
In general terms: In an ELISA, binding on a coated surface is turned into a signal by an enzyme label.

Series [3] has as its system HCT116 cells and MKN45 cells. As to the kind of experiment: Test C: measurement of cell proliferation by 14C-thymidine pulse. It counts as cell-based. As to conditions: 14C-thymidine incorporation, 96 h of treatment; cell line not given. The method, then: The cells are seeded into Cytostar 96-well plates in 180 μl for 4 hours at 37° C. and 5% CO2: HCT116 cells in a proportion of 2500 cells per well in DMEM medium+10% foetal calf serum+1% L-glutamine, and MKN45 cells in a proportion of 7500 cells per well in RPMI medium+10% foetal calf serum+1% L-glutamine. After these 4 hours of incubation, the products are added in 10 μl as a […] concentrated solution according to the dilution method mentioned for the ELISA. The products are tested at 10 concentrations in duplicate from 10 000 nM to 0.3 nM with an increment of 3.
After treatment for 72 h, 10 μl of ^14C-thymidine at 10 μCi/ml are added so as to obtain 0.1 μCi per well. The ^14C-thymidine incorporation is measured on a Micro-Beta machine (Perkin-Elmer) after 24 hours of pulse and 96 h of treatment.
All the steps of the assay are automated on BIOMEK 2000 or TECAN stations.

Structures can show the parent of a compound that is named as a salt.

Consider twelve compounds from US20110263594A1, “NOVEL TRIAZOLO(4,3-A)PYRIDINE DERIVATIVES, PROCESS FOR THE PREPARATION THEREOF, USE THEREOF AS MEDICAMENTS, PHARMACEUTICAL COMPOSITIONS AND NOVEL USE, IN PARTICULAR AS MET INHIBITORS” (SANOFI-AVENTIS, priority 2008, published 2011).

For `O=C(Nc1nc2ccc(Sc3nnc4ccc(-c5cnn(C6CCNCC6)c5)cn34)cc2s1)C1CC1` (as salt: hydrochloride) [Example 16, N-(6-{[6-(1-piperidin-4-yl-1H-pyrazol-4-yl)[1,2,4]triazolo[4,3-a]pyridin-3-yl]sulphanyl}-1,3-benzothiazol-2-yl)cyclopropanecarboxamide], the melting point (commonly the temperature of the solid-liquid transition) is more than 260 °C.
The compound `Nc1nc2ccc(Sc3nnc4ccccn34)cc2s1` [Example 1, 6-([1,2,4]triazolo[4,3-a]pyridin-3-ylsulphanyl)-1,3-benzothiazol-2-amine] came in with a melting point of 260 to 266 °C. In addition, the half-maximal inhibitory concentration (IC50) (in general, the point on the concentration scale where inhibition reaches its midpoint) at MET [1] is less than 0.5 µM.
Compound `O=C(Nc1nc2ccc(Sc3nnc4ccccn34)cc2s1)C1CC1` [Example 2, N-[6-([1,2,4]triazolo[4,3-a]pyridin-3-ylsulphanyl)-1,3-benzothiazol-2-yl]cyclopropanecarboxamide] registered a melting point of 187 to 190 °C. Further, the IC50 on MET [2] was more than 0.5 µM. The IC50 at MET [1] was less than 0.1 µM. Further, in series [3], the IC50 is less than 1 µM.
In turn, `O=C(NCCN1CCOCC1)Nc1nc2ccc(Sc3nnc4ccccn34)cc2s1` [Example 3, 1-[2-(morpholin-4-yl)ethyl]-3-[6-([1,2,4]triazolo[4,3-a]pyridin-3-ylsulphanyl)-1,3-benzothiazol-2-yl]urea] showed a melting point of 204 to 207 °C. This compound also returned an IC50 on MET [2] of less than 0.1 µM. For the same compound, the IC50 on MET [1] is less than 0.1 µM. The IC50 in series [3] was less than 1 µM.
The compound `CN1CCN(CCNC(=O)Nc2nc3ccc(Sc4nnc5ccccn45)cc3s2)CC1` [Example 4, 1-[2-(4-methylpiperazin-1-yl)ethyl]-3-[6-([1,2,4]triazolo[4,3-a]pyridin-3-ylsulphanyl)-1,3-benzothiazol-2-yl]urea] came in with a melting point of 180 to 185 °C. The same compound showed an IC50 against MET [2] of less than 0.1 µM. For the same compound, the IC50 at MET [1] is less than 0.1 µM. Further, the IC50 in series [3] was less than 1 µM.
Take `Nc1nc2ccc(Sc3nnc4ccc(I)cn34)cc2s1` [Example 6, 6-[(6-iodo[1,2,4]triazolo[4,3-a]pyridin-3-yl)sulphanyl]-1,3-benzothiazol-2-amine]: the IC50 is less than 0.1 µM at MET [1] and less than 1 µM in series [3].
As for `O=C(Nc1nc2ccc(Sc3nnc4ccc(-c5ccc(F)cc5)cn34)cc2s1)C1CC1` [Example 8, N-{6-[6-(4-fluorophenyl)[1,2,4]triazolo[4,3-a]pyridin-3-ylsulphanyl]-1,3-benzothiazol-2-yl}cyclopropanecarboxamide], the IC50 was less than 0.1 µM against MET [2], less than 0.1 µM at MET [1] and less than 1 µM in series [3].
As to `Cn1cc(-c2ccc3nnc(Sc4ccc5nc(N)sc5c4)n3c2)cn1` [Example 9, 6-{[6-(1-methyl-1H-pyrazol-4-yl)[1,2,4]triazolo[4,3-a]pyridin-3-yl]sulphanyl}-1,3-benzothiazol-2-amine], the values for the IC50 (against MET [2]; at MET [1]; in series [3]) were more than 0.5 µM, less than 0.1 µM and less than 1 µM, respectively.
Consider `Cn1cc(-c2ccc3nnc(Sc4ccc5nc(NC(=O)C6CC6)sc5c4)n3c2)cn1` [Example 10, N-(6-{[6-(1-methyl-1H-pyrazol-4-yl)[1,2,4]triazolo[4,3-a]pyridin-3-yl]sulphanyl}-1,3-benzothiazol-2-yl)cyclopropanecarboxamide], for which the half-maximal inhibitory concentration (IC50) at MET [2] is less than 0.1 µM; on MET [1], less than 0.1 µM; in series [3] it was less than 1 µM.
For `O=C(Nc1nc2ccc(Sc3nnc4ccc(-c5cnn(CCOC6CCCCO6)c5)cn34)cc2s1)C1CC1` (centres unmarked) [Example 14, N-(6-{[6-(1-[2-(tetrahydro-2H-pyran-2-yloxy)ethyl]-1H-pyrazol-4-yl)[1,2,4]triazolo[4,3-a]pyridin-3-yl]sulphanyl}-1,3-benzothiazol-2-yl)cyclopropanecarboxamide], the IC50 against MET [2] is less than 0.1 µM; on MET [1] it was less than 0.1 µM; in series [3], less than 1 µM.
For the compound `O=C(Nc1nc2ccc(Sc3nnc4ccc(-c5cnn(CCO)c5)cn34)cc2s1)C1CC1` [Example 15, N-(6-{[6-(1-(2-hydroxyethyl)-1H-pyrazol-4-yl)[1,2,4]triazolo[4,3-a]pyridin-3-yl]sulphanyl}-1,3-benzothiazol-2-yl)cyclopropanecarboxamide], the half-maximal inhibitory concentration (IC50) on MET [2] was less than 0.1 µM; at MET [1], less than 0.1 µM; in series [3] it was less than 1 µM.
For `O=C(Nc1nc2ccc(Sc3nnc4ccc(-c5cnn(C6CCNCC6)c5)cn34)cc2s1)C1CC1` [Example 16, N-(6-{[6-(1-piperidin-4-yl-1H-pyrazol-4-yl)[1,2,4]triazolo[4,3-a]pyridin-3-yl]sulphanyl}-1,3-benzothiazol-2-yl)cyclopropanecarboxamide], the half-inhibitory concentration (IC50) on MET [2] was less than 0.1 µM; on MET [1], less than 0.1 µM; in series [3] it was less than 1 µM.
